Test results from patent US7267953B2, “Method for identification of modulators of pre-adipocyte differentiation” (AstraZeneca AB, priority 2001, dated 2007).

What was measured:
[1] = system: NIH/3T3 mouse fibroblasts; experiment: Adipocyte differentiation of retrovirus infected NIH/3T3 fibroblasts, Oil Red O staining; assay type: cell-based; conditions: Oil Red O after 10 days
Description: A classical way of studying the adipocyte differentiating potential of a gene is to overexpress it in either uncommitted NIH/3T3 fibroblasts or in 3T3-L1 preadipocytes using retroviral transfer. The adipocyte differentiating potential can then be assayed by microscopic examination and by staining with lipophilic dyes such as Oil Red O. O/E-1 was thus expressed in mouse NIH/3T3 fibroblasts, 3T3-L1 preadipocytes and mouse embryonic fibroblasts to investigate its adipocyte differentiating potential. cDNAs encoding mouse O/E-1, human O/E-1 and mouse PPARγ2 were cloned in the pBabepuro retrovirus vector. These retrovirus vectors as well as the empty vector were transiently transfected into Phoenix high efficiency packaging cells. Retroviruses containing supernatants were used to infect NIH/3T3 mouse fibroblasts. After puromycin (2 μg/ml) selection for two days, cells were allowed to grow to confluence after which adipogenic inducers were added (DIM, see above), after 10 days cells were stained with the lipophilic dye Oil Red O. As expected PPARγ induced some differentiation of NIH/3T3 mouse fibroblasts into lipid-containing cells that resembled cultured adipocytes in the presence of adipogenic inducers (FIG. 3). […] The ability of human O/E-1 to induce adipocyte differentiation of NIH/3T3 was also tested and found to be similar as that of mouse O/E-1 (Data not shown).

[2] = system: mouse embryonic fibroblasts (MEF); experiment: Adipocyte differentiation of retrovirus infected mouse embryonic fibroblasts (MEF), Oil Red O staining; assay type: cell-based; conditions: Oil Red O at day 13 post-induction
Description: The fibroblastic 3T3-L1 preadipocyte cells have the capability to differentiate to adipocytes when given the proper hormonal stimulation, usually a combination of dexamethasone, insulin and isobutylmethylxanthine, as opposed to NIH/3T3 where overexpression of adipocyte differentiating factors is necessary to get adipocyte development. Untransformed mouse embryonic fibroblasts (MEF) can also be forced to adipocyte differentiation using the same adipogenic factors; the efficiency is however much lower than with 3T3-L1. […] Stable clones were selected 2-3 days using puromycin (2 μg/ml) and surviving cells were grown to confluence. 3T3-L1 cells differentiate to adipocytes at high rate when all adipogenic inducers are present and this could make it difficult discriminate the effect of an additional adipogenic signal. The cells were therefore induced with dexamethasone (1 μM) alone for two days or in combination with darglitazone (0.5 μM) throughout the experiment to get a low differentiation rate. […] At day 13 post-induction adipate differentiation was measured by Oil Red O staining. […]

3T3-L1 preadipocytes = experiment: Adipocyte differentiation of retrovirus infected 3T3-L1 preadipocytes, Oil Red O staining; assay type: cell-based, mouse; conditions: vector or O/E-1 infected 3T3-L1; 0.5 μM in combination with dexamethasone (1 μM); stained at day 3, 4 and 7
Description: The fibroblastic 3T3-L1 preadipocyte cells have the capability to differentiate to adipocytes when given the proper hormonal stimulation, usually a combination of dexamethasone, insulin and isobutylmethylxanthine, as opposed to NIH/3T3 where overexpression of adipocyte differentiating factors is necessary to get adipocyte development. Untransformed mouse embryonic fibroblasts (MEF) can also be forced to adipocyte differentiation using the same adipogenic factors; the efficiency is however much lower than with 3T3-L1. […] Stable clones were selected 2-3 days using puromycin (2 μg/ml) and surviving cells were grown to confluence. 3T3-L1 cells differentiate to adipocytes at high rate when all adipogenic inducers are present and this could make it difficult discriminate the effect of an additional adipogenic signal. The cells were therefore induced with dexamethasone (1 μM) alone for two days or in combination with darglitazone (0.5 μM) throughout the experiment to get a low differentiation rate. MEF on the other hand develop into adipocytes quite inefficiently and were thus induced with the more powerful adipogenic combination of dexamethasone (1 μM), insulin (5 μg/ml) isobutylmethylxanthine (0.115 mg/ml) and darglitazone (0.5 μM) for two days, insulin and darglitazone for two days and darglitazone alone all through the experiment. […]

Cc1oc(-c2ccccc2)nc1CCC(=O)c1ccc(CC2SC(=O)NC2=O)cc1 (stereo not drawn) [darglitazone]
differentiation into lipid-containing adipocyte-like cells ([1]; PPARγ2 infected NIH/3T3, 0.5 μM present throughout with adipogenic inducers (DIM)): dramatic increase | development to adipocytes ([1]; mouse O/E-1 infected NIH/3T3, adipogenic inducers (DIM), 0.5 μM): greatly enhanced | differentiation into adipocytes ([1]; vector infected NIH/3T3, adipogenic inducers (DIM), 0.5 μM): No differentiation was observed | adipocyte differentiation ([2]; human O/E-1 infected MEF): even further enhanced differentiation | number of cells that developed into adipocytes ([2]; vector infected MEF, compared with vehicle): increased the number of cells that developed into adipocytes | overall rate of adipocyte differentiation (3T3-L1 preadipocytes): overall rate of differentiation was enhanced
